A word on the IC50: it is the concentration that gives 50% inhibition. Usually inhibition stands for the change of the read-out against control, counted positive when it falls.

The values below come from article PMC5717651, “Biotransformation of labdane and halimane diterpenoids by two filamentous fungi strains” (Royal Society Open Science, 2017).

Experiment [1] addresses T1, human recombinant acetylcholinesterase (Hr-AChE) (Homo sapiens, UniProt P22303).
T1 construct: purchased Sigma-Aldrich C1682
Description: biochemical. Conditions: for inhibition at 100 µM: pH 8, at 100 µM compound, 70 µM acetylcholine, ammonium acetate 15.0 mM, pH 8.0, n = 3, read-out: % inhibition ± s.e.m. ICER-AChEhr; for inhibitory activity on Hr-AChE (in words): authors' verbal rating. On the procedure:
(§1) Hr-AChE-ICER and Hu-BChE-ICER were prepared by covalent enzyme immobilization onto fused silica capillary tubing (30 cm × 0.375 mm × 100 µm I.D.) according to a previously described procedure. Resulting ICERs were connected to an on-flow LC-IT-MS/MS system (EMU FAPESP—Proc. PROEM 2014/50299-5) as biochromatography columns.
(§2) LC system (Shimadzu, Kyoto, Japan) consisted of two Nexera LC-20ADXR pumps, an SIL 20A auto sampler, with a 50 µl loop, a DGU-20A5 degasser and a CBM-20 interface. LC equipment was connected to an AmaZon Speed Ion Trap Mass Spectrometer equipped with an ESI source, operating in positive ion mode. Data were acquired using software Data Analysis 4.1 (Bruker Daltonics). LC analyses were performed at 25°C. Enzymatic reactions were monitored by direct quantification of choline (Ch, [M + H]^+ m/z 104), the hydrolysis product of ACh.
(§3) Samples were solubilized in methanol to provide a stock solution of 1.00 mM for each compound. Assay samples (100 µl) were prepared using 10 µl of stock solution (100 µM final concentration), 20 µl of acetylcholine solution (70 µM final concentration) and 70 µl of ammonium acetate solution (15.0 mM, pH 8.0). Solutions were prepared in duplicate and 20 µl aliquots were used for injection. Negative (absence of ACh) and positive (presence of ACh and absence of ligand) controls were analysed between each AChEI sample.

In experiment [2] the target is T2, human serum butyrylcholinesterase (Hu-BChE) (Homo sapiens, UniProt P06276).
T2 construct: purchased Sigma-Aldrich B4186; host or cells: human serum
T2 sequence (P06276 29-602): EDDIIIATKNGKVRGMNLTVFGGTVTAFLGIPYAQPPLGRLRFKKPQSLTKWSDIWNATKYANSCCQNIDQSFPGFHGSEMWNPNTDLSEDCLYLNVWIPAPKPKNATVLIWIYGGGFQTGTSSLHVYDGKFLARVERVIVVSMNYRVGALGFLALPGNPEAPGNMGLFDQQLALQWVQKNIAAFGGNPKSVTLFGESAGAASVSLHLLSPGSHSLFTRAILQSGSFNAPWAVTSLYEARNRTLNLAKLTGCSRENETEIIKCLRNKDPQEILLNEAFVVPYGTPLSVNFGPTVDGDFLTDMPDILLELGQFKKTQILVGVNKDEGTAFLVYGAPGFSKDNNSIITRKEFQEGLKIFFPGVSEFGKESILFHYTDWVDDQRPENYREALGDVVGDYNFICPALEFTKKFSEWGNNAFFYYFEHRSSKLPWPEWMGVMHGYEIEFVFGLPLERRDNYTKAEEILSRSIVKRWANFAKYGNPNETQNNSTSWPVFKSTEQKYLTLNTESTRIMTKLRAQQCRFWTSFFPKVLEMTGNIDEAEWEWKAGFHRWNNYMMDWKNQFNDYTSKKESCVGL
As to the kind of experiment: On-flow Hu-BChE-ICER-IT-MS/MS screening assay (hydrolysis of acetylcholine, choline quantified). It counts as biochemical. The conditions noted are these: for inhibitory activity on Hu-BChE (in words): authors' verbal rating. On the procedure: as §1, §2, §3

The mark [3] stands for this setting: immobilized Hr-AChE capillary reactor (ICER), read-out: IC50 AChEhr.
[4] abbreviates: at 100 µM compound, 70 µM acetylcholine, ammonium acetate 15.0 mM, pH 8.0, n = 3, read-out: % inhibition ± s.e.m. ICER-BChEhu.

Where two headings read alike, the source gives them in different places.

T1 sequence (P22303 32-614): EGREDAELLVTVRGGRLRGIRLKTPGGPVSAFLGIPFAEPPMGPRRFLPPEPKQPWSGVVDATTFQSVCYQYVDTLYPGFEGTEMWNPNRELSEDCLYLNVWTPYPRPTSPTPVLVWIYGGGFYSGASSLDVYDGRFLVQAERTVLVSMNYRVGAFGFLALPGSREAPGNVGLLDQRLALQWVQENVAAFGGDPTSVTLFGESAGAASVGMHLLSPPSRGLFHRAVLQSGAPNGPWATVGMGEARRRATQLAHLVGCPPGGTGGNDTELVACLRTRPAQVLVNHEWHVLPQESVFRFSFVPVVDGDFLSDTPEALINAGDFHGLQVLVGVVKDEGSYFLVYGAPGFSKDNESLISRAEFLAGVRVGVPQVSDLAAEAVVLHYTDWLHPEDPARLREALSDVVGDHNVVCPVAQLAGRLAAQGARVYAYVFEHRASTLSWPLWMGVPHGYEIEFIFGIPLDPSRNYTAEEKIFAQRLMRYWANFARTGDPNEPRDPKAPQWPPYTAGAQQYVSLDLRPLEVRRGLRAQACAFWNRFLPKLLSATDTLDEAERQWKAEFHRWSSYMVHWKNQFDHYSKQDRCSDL

As for `C/C(=C\C(=O)O)CC[C@H]1[C@](C)(O)[C@H](O)C[C@H]2C(C)(C)CCC[C@@]21C` (relative stereo) [Compound 7, (-)-(5S*, 7R*, 8R*, 9R*, 10S*)-Lab-13-en-7α,8α-diol-15-oic acid], the IC50 in experiment [1] (setting [3]) is greater than 100 µM. Moreover, the inhibition at 100 µM stood at 4.71 ± 0.11% in experiment [1] and 20.1 ± 1.73% in experiment [2] (setting [4]).
Regarding `C/C(=C\C(=O)O)CC[C@@H]1[C@@]2(C)CC[C@H](O)C(C)(C)[C@@H]2CC[C@@]1(C)O` (relative stereo) [Compound 8, (+)-(3S*, 5S*, 8R*, 9R*, 10S*)-Lab-13-en-3β,8α-diol-15-oic acid], the “inhibitory activity on Hr-AChE (in words)” value in experiment [1] is “weakly active”. Moreover, in experiment [1] (setting [3]), the IC50 worked out at 95.7 ± 1.7 µM. Further, the inhibition at 100 µM is roughly 50% in experiment [1] and 13.3 ± 2.62% in experiment [2] (setting [4]).
`C/C(=C\C(=O)O)CC[C@]1(C)C2=CCC[C@@](C)(CO)[C@H]2CC[C@H]1C` [Compound 1, (+)-(4R, 5S, 8R, 9S)-18-Hydroxy-ent-halima-1(10),13-(E)-dien-15-oic acid]: in experiment [1], the “inhibitory activity on Hr-AChE (in words)” value was “weak inhibitory activity” and the inhibition at 100 µM was determined as 24.96 ± 0.04%. The IC50 in experiment [1] (setting [3]) is greater than 100 µM. In addition, in experiment [2] (setting [4]), the inhibition at 100 µM stood at 36.09 ± 0.28%. Moreover, the “inhibitory activity on Hu-BChE (in words)” value in experiment [2] is listed as “weak inhibitory activity”.
Consider `C/C(=C\C(=O)O)CC[C@@H]1[C@@]2(C)CCCC(C)(C)[C@@H]2CC[C@@]1(C)O` [Compound 2, (+)-(5S, 8R, 9R, 10S)-Lab-13-en-8α-ol-15-oic acid], for which, in experiment [1], the IC50 is greater than 100 µM, the “inhibitory activity on Hr-AChE (in words)” value is listed as “weak inhibitory activity” and the inhibition at 100 µM was 26.5 ± 3.1%. Besides, the inhibition at 100 µM in experiment [2] (setting [4]) came out at 13.3 ± 0.39%. Besides, the “inhibitory activity on Hu-BChE (in words)” value in experiment [2] is “weak inhibitory activity”.
For `C/C(=C\C(=O)O)CC[C@]1(C)C2=CC(=O)C[C@@](C)(CO)[C@H]2CC[C@H]1C` [Compound 3, (+)-(4R, 5S, 8R, 9S)-2-Oxo-18-hydroxy-ent-halima-1(10),13-(E)-dien-15-oic acid], in experiment [1] (setting [3]), the IC50 is greater than 100 µM. In addition, the inhibition at 100 µM in experiment [1] amounted to 30.13 ± 0.3%; in experiment [2] (setting [4]) it was 14.5 ± 2.47%.
Regarding `C/C(=C\C(=O)O)CC[C@]1(C)C2=CCCC(CO)(CO)[C@H]2CC[C@H]1C` [Compound 4, (+)-(5S, 8R, 9S)-18,19-Dihydroxy-ent-halima-1(10),13-(E)-dien-15-oic acid], in experiment [1] (setting [3]), the IC50 was greater than 100 µM. Moreover, the inhibition at 100 µM in experiment [1] was 39.4 ± 3.86%; in experiment [2] (setting [4]), 14.5 ± 2.42%.
For the molecule `C/C(=C\C(=O)O)CC[C@]1(C)C2=CCC[C@@](C)(C(=O)O)[C@H]2CC[C@H]1C` [Compound 5, (+)-(4R, 5S, 8R, 9S)-18-Carboxy-ent-halima-1(10),13-(E)-dien-15-oic acid], the “inhibitory activity on Hr-AChE (in words)” value in experiment [1] was “inactive”. Further, in experiment [1] (setting [3]), the IC50 was greater than 100 µM. The inhibition at 100 µM in experiment [1] is roughly 50%; in experiment [2] (setting [4]), 8.17 ± 1.32%.
For `C/C(=C\C(=O)O)CC[C@]1(C)C2=CCC[C@@](C)(C=O)[C@H]2CC[C@H]1C` [Compound 6, (+)-(4R, 5S, 8R, 9S)-18-Formyl-ent-halima-1(10),13-(E)-dien-15-oic acid], the IC50 in experiment [1] (setting [3]) was greater than 100 µM. Also, the inhibition at 100 µM in experiment [1] came out at 3.23 ± 1.7%; in experiment [2] (setting [4]), 25.07 ± 0.14%.
Consider `COc1ccc2c3c1O[C@H]1C[C@@H](O)C=C[C@@]31CCN(C)C2` [Gal, Galanthamine, reference compound], for which, in experiment [2] (pH 8, read-out: % inhibition ± s.e.m. ICER-BChEhu), the inhibition at 100 µM came out at 75.8 ± 1.74%.
